Read-outs that look alike come from different tables or passages of the source.
System: E. coli
Conditions: for time/kill response over the first 6 hours contact time / contact time to total kill: FIG. 1; for contact time to total kill: sterile sludge, 22° C., about 10^8 cells per ml
Text: The methodology adopted to evaluate biocide performance was by Quantitative Suspension Test (QST) using sterile anaerobic digester sludge as the QST medium, back-inoculated with E. coli cultures previously isolated from the sludge. In this way, a consistent chemical environment (sterile sludge) could be used in conjunction with a defined bacterial challenge. This enables the provision of consistency between tests.
The E. coli strains used in QST had been isolated from raw-sludge samples.
QST were performed as follows: • Sterile sludge (19 ml) was dispensed into sterile, screw-cap, plastics universal bottles of nominal 30 ml capacity. • To each sample was added 0.5 ml of a washed cell suspension of E. coli prepared from a 16-hour culture incubated at 44° C. in Tryptose Soy Broth, which had been centrifuged (14500 rpm for 10 min.) and re-suspended in sterile phosphate buffer (0.2M at pH 7.2). An inoculum of 0.5 ml was sufficient to provide a final cell concentration of about 10^8 per ml in 20 ml of QST medium. • Fresh stock solutions of the candidate treatment chemicals were prepared in sterile phosphate buffer (0.2M at pH 7.2) at concentrations such that when 0.5 ml was added to the QST medium (final volume 20 ml) the desired final concentration of biocide was achieved. • The QST medium was mixed thoroughly and held at 22° C. for the duration of the test. • At intervals during the test, the sludge was well mixed and samples (1.0 ml) were removed from the QST medium and inoculated into the first tube of a dilution series containing MacConkey broth supplemented with sodium thiosulphate (5.0 g/l), to inactivate any residual biocide carried into the dilution series.
The end point was scored as the highest dilution in the series to show a change in colour from purple to yellow and to have developed turbidity.
MacConkey Broth was selected as this medium contains the pH indicator Bromocresol Purple that changes from purple to yellow as the medium becomes acidic. This is a useful indirect indicator of microbial growth (organic acid production) where this cannot be scored by the development of turbidity in an initially clear medium. Because the sludge contains suspended solids the first 2 tubes of the dilution series instantaneously develop turbidity on the addition of the sludge. This precludes using turbidity alone as an indicator of microbial growth.

| Molecule | log reduction in numbers (500 mg/l active ingredient, after 48 hours, FIG. 3) | time/kill response over the first 6 hours contact time (250 mg/l) | contact time to total kill (250 mg/l) | time/kill response over the first 6 hours contact time (500 mg/l) | contact time to total kill (500 mg/l) | time/kill response over the first 6 hours contact time (1000 mg/l) | contact time to total kill (1000 mg/l) | anti-microbial performance (Phosphonium Salt compared with DBNPA) (equal active-ingredient concentration of 500 mg/l, FIG. 3) |
| --- | --- | --- | --- | --- | --- | --- | --- | --- |
| N#CC(Br)(Br)C(N)=O [DBNPA, dibromo-nitrilo-propionamide, reference compound] | 2.5 log | – | – | – | – | – | – | – |
| tetrakis(hydroxymethyl) phosphonium sulphate [Phosphonium Salt] | – | fairly flat | ≤ 48 h | fairly flat | ≤ 48 h | more progressive | ≤ 24 h | superior |

Reference: patent US7638056B2, “Treatment of sewage sludge” (Rhodia Operations, priority 2003, dated 2009)
